pIC50: −log10 of the molar value.
Target: ROCK1 (Homo sapiens (Human), UniProt Q13464)
Experiment: ROCK1 kinase IC50 assay (biological test method similar to the ROCK2 assay)
Format: biochemical
Description: The kinase IC50 was determined by a commercialized CISBIO kinase detection kit, HTRF KinEASE-STK S2 kit (62ST2PEC). ROCK2 (01-119) employed in the reaction was purchased from Carna Biosciences.
Before the assay, the following working solutions as needed were formulated with corresponding reagents according to the instruction of the kinase detection kit: 1×kinase buffer, 5×STK-52 substrate working solution (1.5 μM) and 5×ATP working solution (1.5 μM), 5×ROCK2 kinase working solution, 4×Streptavidin-XL665 working solution, and 4×STK-Ab-Cryptate 2 detection solution. Then the assay was performed according to the following procedure.
A solution of a compound at a concentration of 10000 nM was prepared with the 1×kinase buffer containing 2.5% DMSO. Gradient dilution of the solution of the compound was performed with the kinase buffer containing DMSO, so as to obtain solutions of a test compound at 9 different concentrations. In addition to wells of test compounds, a positive well (containing all the reagents except the compound) and a negative well (containing all the reagents except the test compound and kinase) were set. Except for the control wells (positive and negative wells), a solution of a test compound (4 μL) was added to each of the reaction wells, and a solution of 2.5% DMSO was added to the control wells. Then the substrate ([…], 2 μL. 5×STK-S2 substrate working solution) was added to each of the reaction wells. The 5×ROCK2 kinase working solution (2 μL, containing 1.4 ng ROCK2 kinase) was added to each of the reaction wells except for the negative well, the volume of which was made up with the 1×kinase buffer (2 μL). The 5×ATP working solution (2 μL) was added to each of the reaction wells, and the mixtures were incubated at room temperature for 2 hours. After the kinase reaction was complete, the 4×Streptavidin-XL665 working solution was added to each of the reaction wells, the solutions were mixed, followed by immediate addition of the 4×STK-Ab-Cryptate 2 detection solution (5 μL), and the mixtures were incubated at room temperature for 1 hour. The fluorescence signal was read on ENVISION (Perkinelmer) (excitation wavelength: 320 nm, and emission wavelength: 665 nm and 615 nm). The inhibitory rate in each well was calculated based on the fluorescence intensity value: ER (Emission Ratio)=(fluorescence intensity at 665 nm/fluorescence intensity at 615 nm); inhibitory rate=(ERpositive−ERtest compound)/(ERpositive−ERnegative)*100%. Curves were plotted and fitted to obtain the median inhibitory concentration (IC50) of each teat compound with the PRISM 5.0 software.
According to a biological test method similar to the above, the IC50 values of the compounds on ROCK1 were tested.

Chain of ROCK1 (Q13464 whole entry, species assumed): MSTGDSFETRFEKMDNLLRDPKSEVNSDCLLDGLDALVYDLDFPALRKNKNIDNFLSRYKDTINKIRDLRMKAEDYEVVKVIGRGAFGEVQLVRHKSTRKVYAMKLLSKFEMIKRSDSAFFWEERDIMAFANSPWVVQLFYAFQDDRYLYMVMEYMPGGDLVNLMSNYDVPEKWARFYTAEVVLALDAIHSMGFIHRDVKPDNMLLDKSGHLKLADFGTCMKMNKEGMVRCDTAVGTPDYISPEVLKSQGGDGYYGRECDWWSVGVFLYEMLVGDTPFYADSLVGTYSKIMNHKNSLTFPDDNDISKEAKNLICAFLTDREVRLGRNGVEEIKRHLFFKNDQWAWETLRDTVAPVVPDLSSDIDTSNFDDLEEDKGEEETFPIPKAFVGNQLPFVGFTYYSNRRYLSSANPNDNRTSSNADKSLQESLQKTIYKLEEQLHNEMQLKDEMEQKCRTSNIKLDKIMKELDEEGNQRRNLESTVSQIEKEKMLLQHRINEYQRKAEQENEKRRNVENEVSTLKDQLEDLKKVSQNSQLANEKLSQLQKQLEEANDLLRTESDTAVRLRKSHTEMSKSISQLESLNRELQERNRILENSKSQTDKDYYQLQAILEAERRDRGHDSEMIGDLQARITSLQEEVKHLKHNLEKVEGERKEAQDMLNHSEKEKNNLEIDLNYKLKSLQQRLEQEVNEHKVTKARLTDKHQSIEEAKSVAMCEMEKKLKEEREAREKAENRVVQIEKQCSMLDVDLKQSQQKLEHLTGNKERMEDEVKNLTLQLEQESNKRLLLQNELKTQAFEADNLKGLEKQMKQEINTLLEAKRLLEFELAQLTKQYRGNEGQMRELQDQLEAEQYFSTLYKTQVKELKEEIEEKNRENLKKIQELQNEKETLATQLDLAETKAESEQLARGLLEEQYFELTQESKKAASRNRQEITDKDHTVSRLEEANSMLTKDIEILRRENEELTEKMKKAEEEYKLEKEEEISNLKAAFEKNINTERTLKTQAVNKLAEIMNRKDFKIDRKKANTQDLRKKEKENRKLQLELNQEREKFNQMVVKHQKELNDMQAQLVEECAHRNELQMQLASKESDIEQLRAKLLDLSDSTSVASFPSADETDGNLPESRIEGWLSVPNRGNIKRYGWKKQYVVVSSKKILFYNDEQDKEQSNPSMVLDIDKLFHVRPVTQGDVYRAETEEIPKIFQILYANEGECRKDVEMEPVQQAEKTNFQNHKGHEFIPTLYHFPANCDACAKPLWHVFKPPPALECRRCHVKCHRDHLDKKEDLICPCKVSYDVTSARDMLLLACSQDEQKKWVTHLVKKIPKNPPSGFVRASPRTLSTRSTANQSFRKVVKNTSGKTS

| SMILES | pIC50 |
| --- | --- |
| O=C(Nc1ccnnc1)c1cc2ccc(-c3nccc(Nc4ccc5[nH]ncc5c4)n3)cc2s1 [TDI01116, 6-(4-((1H-indazol-5-yl)amino)-pyrimidin-2-yl)-N-(pyridazin-4-yl)benzo[b]-thiophene-2-carboxamide] | < 5.00 |
| CC(C)NC(=O)c1cc2ccc(-c3nc(Nc4ccc5[nH]ncc5c4)c4ccn(CCN(C)C)c4n3)cc2s1 [TDI01122, 6-(4-((1H-indazol-5-yl)amino)-7-(2-(dimethylami-no)ethyl)-7H-pyrrolo[2,3-d]pyrimidin-2-yl)-N-isopropylben-zo[b]thiophene-2-carboxamide] | 5.49 |
| CC(C)NC(=O)c1cc2ccc(-c3nc(Nc4ccc5[nH]ncc5c4)c4occc4n3)cc2s1 [TDI01135, 6-(4-((1H-indazol-5-yl)amino)furo[3,2-d]pyrimidin-2-yl)-N-isopropylben-zo[b]thiophene-2-carboxamide] | 5.52 |
| CC(C)NC(=O)c1cc2ccc(-c3nc(Nc4ccc5[nH]ncc5c4)c4sccc4n3)cc2s1 [TDI01136, 6-(4-((1H-indazol-5-yl)amino)thieno[3,2-d]pyrimidin-2-yl)-N-isopropylben-zo[b]thiophene-2-carboxamide] | 6.08 |
| CC(C)NC(=O)c1cc2ccc(-c3nc(Nc4ccc5[nH]ncc5c4)c4sccc4n3)cc2[nH]1 [TDI01141, 6-(4-((1H-indazol-5-yl)amino)thieno[3,2-d]pyrimidin-2-yl)-N-isopropyl-1H-indole-2-carboxamide] | 6.08 |
| CC(C)NC(=O)c1cc2ccc(-c3nc(Nc4ccc5[nH]ncc5c4)c4cc[nH]c4n3)cc2[nH]1 [TDI01143, 6-(4-((1H-indazol-5-yl)amino)-7H-pyrrolo[2,3-d]pyrimidin-2-yl)-N-isopropyl-1H-indole-2-carboxamide] | 5.83 |
| CC(C)NC(=O)c1cc2ccc(-c3nc(Nc4ccc5[nH]ncc5c4)c4scnc4n3)cc2[nH]1 [TDI01149, 6-(7-((1H-indazol-5-yl)ami-no)thiazolo[4,5-d]pyrimidin-5-yl)-N-isopropyl-1H-indole-2-carboxamide] | 5.88 |
| O=C(Nc1ccncc1)c1cc2ccc(-c3nccc(Nc4ccc5[nH]ncc5c4)n3)cc2[nH]1 [TDI01153, 6-(4-((1H-indazol-5-yl)amino)-pyrimidin-2-yl)-N-(pyridin-4-yl)-1H-indole-2-carboxamide] | 5.57 |
| O=C(Nc1cnccn1)c1cc2ccc(-c3nccc(Nc4ccc5[nH]ncc5c4)n3)cc2[nH]1 [TDI01160, 6-(4-((1H-indazol-5-yl)amino)pyrimidin-2-yl)-N-(pyrazin-2-yl)-1H-indole-2-carboxamide] | 5.65 |
| O=C(Nc1ccncn1)c1cc2ccc(-c3nccc(Nc4ccc5[nH]ncc5c4)n3)cc2[nH]1 [TDI01161, 6-(4-((1H-indazol-5-yl)amino)-pyrimidin-2-yl)-N-(pyrimidin-4-yl)-1H-indole-2-carboxamide] | < 5.00 |
| O=C(Nc1ccnnc1)c1cc2ccc(-c3nc(Nc4ccc5[nH]ncc5c4)cc4nccn34)cc2[nH]1 [TDI01164, 6-(7-((1H-indazol-5-yl)amino)-imidazo[1,2-c]pyrimidin-5-yl)-N-(pyridazin-4-yl)-1H-indole-2-carboxamide] | < 5.00 |
| O=C(Nc1ccnnc1)c1cc2ccc(-c3ncnc(Nc4ccc5[nH]ncc5c4)n3)cc2[nH]1 [TDI01167, 6-(4-((1H-indazol-5-yl)amino)-1,3,5-triazin-2-yl)-N-(pyridazin-4-yl)-1H-indole-2-carboxamide] | < 5.00 |
| O=C(Nc1ccnnc1)c1cc2ccc(-c3nc(Nc4ccc5[nH]ncc5c4)c4sccc4n3)cc2[nH]1 [TDI01175, 6-(4-((1H-indazol-5-yl)amino)-thieno[3,2-d]pyrimidin-2-yl)-N-(pyridazin-4-yl)-1H-indole-2-carboxamide] | 5.28 |
| O=C(Nc1ccnnc1Cl)c1cc2ccc(-c3nccc(Nc4ccc5[nH]ncc5c4)n3)cc2[nH]1 [TDI01180] | 5.56 |
| O=C(Nc1cnncc1Cl)c1cc2ccc(-c3nccc(Nc4ccc5[nH]ncc5c4)n3)cc2[nH]1 [TDI01181, 6-(4-((1H-indazol-5-yl)amino)-pyrimidin-2-yl)-N-(5-chloropridazin-4-yl)-1H-indole-2-carboxamide] | 6.02 |
| O=C(Nc1ccc2[nH]ncc2c1)c1cc2ccc(-c3nccc(Nc4ccc5[nH]ncc5c4)n3)cc2[nH]1 [TDI01182, 6-(4-((1H-indazol-5-yl)amino)-pyrimidin-2-yl)-N-(1H-indazol-5-yl)-1H-indole-2-carboxamide] | 6.15 |

Other lines, results leading:

| pIC50 | SMILES |
| --- | --- |
| 5.69 | CC(C)NC(=O)C1COc2ccc(-c3nccc(Nc4ccc5[nH]ncc5c4)n3)cc2O1 (stereo not drawn) [TDI01103, 7-(4-((1H-indazol-5-yl)amino)pyrimidin-2-yl)-N-isopropyl-2,3-dihydrobenzo[b][1,4]dioxine-2-carboxamide] |
| 6.06 | CC(C)NC(=O)c1cc2ccc(-c3nccc(Nc4ccc5[nH]ncc5c4)n3)cc2s1 [TDI01104, 6-(4-((1H-indazol-5-yl)amino)pyrimidin-2-yl)-N-isopropylben-zo[b]thiophene-2-carboxamide] |
| < 5.00 | CNC(=O)c1cc2ccc(-c3nccc(Nc4ccc5[nH]ncc5c4)n3)cc2s1 [TDI01109, 6-(4-((1H-indazol-5-yl)amino)pyrimidin-2-yl)-N-methylben-zo[b]thiophene-2-carboxamide] |
| < 5.00 | CN(C)C(=O)c1cc2ccc(-c3nccc(Nc4ccc5[nH]ncc5c4)n3)cc2s1 [TDI01110, 6-(4-((1H-indazol-5-yl)amino)pyrimidin-2-yl)-N, N-dimethylben-zo[b]thiophene-2-carboxamide] |
| 5.85 | O=C(NC1CC1)c1cc2ccc(-c3nccc(Nc4ccc5[nH]ncc5c4)n3)cc2s1 [TDI01111, 6-(4-((1H-indazol-5-yl)amino)pyrimidin-2-yl)-N-cyclopropylben-zo[b]thiophene-2-carboxamide] |
| 6.26 | O=C(NC1CCOC1)c1cc2ccc(-c3nccc(Nc4ccc5[nH]ncc5c4)n3)cc2s1 (stereo not drawn) [TDI01113, 6-(4-((1H-indazol-5-yl)amino)pyrimidin-2-yl)-N-(tetrahydrofuran-3-yl)benzo[b]thiophene-2-carboxamide] |
| 5.86 | Cn1cc(NC(=O)c2cc3ccc(-c4nccc(Nc5ccc6[nH]ncc6c5)n4)cc3[nH]2)cn1 [TDI01134, 6-(4-((1H-indazol-5-yl)amino)-pyrimidin-2-yl)-N-(1-methyl-1H-pyrazol-4-yl)-1H-indole-2-carboxamide] |
| 6.05 | O=C(NC1CC1)c1cc2ccc(-c3nccc(Nc4ccc5[nH]ncc5c4)n3)cc2[nH]1 [TDI01151, 6-(4-((1H-indazol-5-yl)amino)-pyrimidin-2-yl)-N-cyclopropyl-1H-indole-2-carboxamide] |
| < 5.00 | O=C(Nc1ccnnc1)c1cc2ccc(-c3nccc(Nc4ccc5[nH]ncc5c4)n3)cc2[nH]1 [TDI01152, 6-(4-((1H-indazol-5-yl)amino)-pyrimidin-2-yl)-N-(pyridazin-4-yl)-1H-indole-2-carboxaniide] |
| 5.70 | O=C(Nc1cnoc1)c1cc2ccc(-c3nccc(Nc4ccc5[nH]ncc5c4)n3)cc2[nH]1 [TDI01156, 6-(4-((1H-indazol-5-yl)amino)-pyrimidin-2-yl)-N-(isoxazol-4-yl)-1H-indole-2-carboxamide] |
| 6.28 | CC(CO)NC(=O)c1cc2ccc(-c3nccc(Nc4ccc5[nH]ncc5c4)n3)cc2[nH]1 (stereo not drawn) [TDI01176, 6-(4-((1H-indazol-5-yl)amino)-pyrimidin-2-yl)-N-(1-hydroxypropan-2-yl)-1H-indole-2-carboxamide] |

Reference: patent US11390609B2, “Rho-associated protein kinase inhibitor, pharmaceutical composition comprising same, and preparation method and use thereof” (BEIJING TIDE PHARMACEUTICAL CO., LTD., priority 2017, dated 2022)
